Assays:
Assay type in all cases: in vivo
[1] = system: blackgrass (Alopecurus myosuroides); experiment: Test A greenhouse herbicide test, postemergence
How it was run: (§1)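 Pot-grown plants (loam soil/sand blend), 2–10 cm tall at the one- to two-leaf stage, received postemergence sprays of formulated test chemical. After about 10 d in the greenhouse, injury was rated visually against untreated controls on a 0 (no effect) to 100 (complete control) scale.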

[2] = system: galium (catchweed bedstraw, Galium aparine); experiment: Test A greenhouse herbicide test, postemergence
How it was run: as §1

[3] = system: nutsedge, yellow (yellow nutsedge, Cyperus esculentus); experiment: Test C greenhouse herbicide test, pre- and postemergence; settings: Preemergence; for Plant response rating, Nutsedge, Yellow: scale 0 to 100, 0 is no effect, 100 is complete control; for Nutsedge, Yellow plant response rating: 250 g ai/ha, scale 0 to 100, 0 no effect, 100 complete control
Excerpt: (§2) Seeds of plant species selected from blackgrass (Alopecurus myosuroides), ryegrass, Italian (Italian ryegrass, Lolium multiflorum), wheat (winter wheat, Triticum aestivum), galium (catchweed bedstraw, Galium aparine), corn (Zea mays), large crabgrass, large (large crabgrass, Digitaria sanguinalis), foxtail, giant (giant foxtail, Setaria faberii), johnsongrass (Sorghum halepense), lambsquarters (Chenopodium album), morningglory (Ipomoea coccinea), nutsedge, yellow (yellow nutsedge, Cyperus esculentus), pigweed (Amaranthus retroflexus), ragweed (common ragweed, Ambrosia elatior), soybean (Glycine max), barnyardgrass (Echinochloa crus-galli), oilseed rape (Brassica napus), waterhemp (common waterhemp, Amaranthus rudis), and velvetleaf (Abutilon theophrasti) were planted into a blend of loam soil and sand and treated preemergence with test chemicals formulated in a non-phytotoxic solvent mixture which included a surfactant.
(§3) At the same time, plants selected from these crop and weed species and also chickweed (common chickweed, Stellaria media), kochia (Kochia scoparia), and oat, wild (wild oat, Avena fatua), were planted in pots containing Redi-Earth® planting medium (Scotts Company, 14111 Scottslawn Road, Marysville, Ohio 43041) comprising spaghnum peat moss, vermiculite, wetting agent and starter nutrients and treated with postemergence applications of test chemicals formulated in the same manner. Plants ranged in height from 2 to 18 cm (1- to 4-leaf stage) for postemergence treatments. Treated plants and controls were maintained in a greenhouse for 13 to 15 d, after which time all species were compared to controls and visually evaluated. Plant response ratings, summarized in Table C, are based on a scale of 0 to 100 where 0 is no effect and 100 is complete control. A dash (-) response means no test result.

[4] = system: blackgrass (Alopecurus myosuroides); experiment: as above; settings: Preemergence; for Plant response rating, Blackgrass: scale 0 to 100, 0 is no effect, 100 is complete control; for Blackgrass plant response rating: 250 g ai/ha, scale 0 to 100, 0 no effect, 100 complete control
Excerpt: as §2, §3

[5] = system: soybean (Glycine max); experiment: as above; settings: Preemergence; for Plant response rating, Soybean: scale 0 to 100, 0 is no effect, 100 is complete control; for Soybean plant response rating: 250 g ai/ha, scale 0 to 100, 0 no effect, 100 complete control
Excerpt: as §2, §3

[6] = system: barnyardgrass (Echinochloa crus-galli); experiment: as above; settings: Preemergence; for Plant response rating, Barnyardgrass: scale 0 to 100, 0 is no effect, 100 is complete control; for Barnyardgrass plant response rating: 250 g ai/ha, scale 0 to 100, 0 no effect, 100 complete control
Excerpt: as §2, §3

[7] = system: velvetleaf (Abutilon theophrasti); experiment: as above; settings: Preemergence; for Plant response rating, Velvetleaf: scale 0 to 100, 0 is no effect, 100 is complete control; for Velvetleaf plant response rating: 250 g ai/ha, scale 0 to 100, 0 no effect, 100 complete control
Excerpt: as §2, §3

[8] = system: pigweed (Amaranthus retroflexus); experiment: as above; settings: Preemergence; for Plant response rating, Pigweed: scale 0 to 100, 0 is no effect, 100 is complete control; for Pigweed plant response rating: 250 g ai/ha, scale 0 to 100, 0 no effect, 100 complete control
Excerpt: as §2, §3

[9] = system: ragweed (common ragweed, Ambrosia elatior); experiment: as above; settings: Preemergence; for Plant response rating, Ragweed: scale 0 to 100, 0 is no effect, 100 is complete control; for Ragweed plant response rating: 250 g ai/ha, scale 0 to 100, 0 no effect, 100 complete control
Excerpt: as §2, §3

[10] = system: galium (catchweed bedstraw, Galium aparine); experiment: as above; settings: Preemergence; for Plant response rating, Galium: scale 0 to 100, 0 is no effect, 100 is complete control; for Galium plant response rating: 250 g ai/ha, scale 0 to 100, 0 no effect, 100 complete control
Excerpt: as §2, §3

[11] = system: ryegrass, Italian (Italian ryegrass, Lolium multiflorum); experiment: as above; settings: Preemergence; for Plant response rating, Ryegrass, Italian: scale 0 to 100, 0 is no effect, 100 is complete control; for Ryegrass, Italian plant response rating: 250 g ai/ha, scale 0 to 100, 0 no effect, 100 complete control
Excerpt: as §2, §3

[12] = 125 g ai/ha, 0 to 100 scale where 0 is no effect and 100 is complete control
[13] = 500 g ai/ha, visual rating after approx. 10 d, 0 to 100 scale (0 no effect, 100 complete control)
[14] = 125 g ai/ha, 0 to 100 scale, 0 no effect, 100 complete control

In the case of `CC(=O)Oc1c(Cl)nn(C)c(=O)c1-c1c(C)sc2ccc(Cl)cc12` [Compound 116], the “Plant response rating, Blackgrass” value [1, 12] was 30, the “Plant response rating, Blackgrass” value [1, 13] was 70 and the “Plant response rating, Galium” value [2, 12] was 70. For the same molecule, the “Plant response rating, Galium” value [2, 13] was 100, the “Plant response rating, Nutsedge, Yellow” value ([3]; 31 g ai/ha) was 0 and the “Plant response rating, Nutsedge, Yellow” value ([3]; 62 g ai/ha) was 35. The “Plant response rating, Nutsedge, Yellow” value ([3]; 125 g ai/ha) was 85, the “Nutsedge, Yellow plant response rating” value [3] was 95 and the “Plant response rating, Blackgrass” value ([4]; 31 g ai/ha) was 0. For the same molecule, the “Plant response rating, Blackgrass” value ([4]; 62 g ai/ha) was 5, the “Plant response rating, Blackgrass” value ([4]; 125 g ai/ha) was 30 and the “Blackgrass plant response rating” value [4] was 35. For the same molecule, the “Plant response rating, Soybean” value ([5]; 62 g ai/ha) was 0, the “Plant response rating, Soybean” value ([5]; 125 g ai/ha) was 0 and the “Soybean plant response rating” value [5] was 5. The “Plant response rating, Barnyardgrass” value ([6]; 31 g ai/ha) was 5, the “Plant response rating, Barnyardgrass” value ([6]; 62 g ai/ha) was 30 and the “Plant response rating, Barnyardgrass” value ([6]; 125 g ai/ha) was 70. For the same molecule, the “Barnyardgrass plant response rating” value [6] was 95, the “Plant response rating, Velvetleaf” value ([7]; 31 g ai/ha) was 70 and the “Plant response rating, Velvetleaf” value ([7]; 62 g ai/ha) was 85. For the same molecule, the “Plant response rating, Velvetleaf” value ([7]; 125 g ai/ha) was 100, the “Velvetleaf plant response rating” value [7] was 100 and the “Plant response rating, Pigweed” value ([8]; 31 g ai/ha) was 95. The “Plant response rating, Pigweed” value ([8]; 62 g ai/ha) was 100, the “Plant response rating, Pigweed” value ([8]; 125 g ai/ha) was 100 and the “Pigweed plant response rating” value [8] was 100. For the same molecule, the “Plant response rating, Ragweed” value ([9]; 31 g ai/ha) was 85, the “Plant response rating, Ragweed” value ([9]; 62 g ai/ha) was 90 and the “Plant response rating, Ragweed” value ([9]; 125 g ai/ha) was 95. The “Ragweed plant response rating” value [9] was 100, the “Plant response rating, Galium” value ([10]; 31 g ai/ha) was 60 and the “Plant response rating, Galium” value ([10]; 62 g ai/ha) was 85. The “Plant response rating, Galium” value ([10]; 125 g ai/ha) was 100, the “Galium plant response rating” value [10] was 100 and the “Plant response rating, Ryegrass, Italian” value ([11]; 31 g ai/ha) was 5. The “Plant response rating, Ryegrass, Italian” value ([11]; 62 g ai/ha) was 30, the “Plant response rating, Ryegrass, Italian” value ([11]; 125 g ai/ha) was 70 and the “Ryegrass, Italian plant response rating” value [11] was 90.
With `CC(=O)Oc1c(Cl)nn(C)c(=O)c1-c1c(C)sc2ccc(C(F)(F)F)cc12` [Compound 152] the “Plant response rating, Blackgrass” value [1, 14] was 20, the “Plant response rating, Blackgrass” value [1, 13] was 30 and the “Plant response rating, Galium” value [2, 14] was 60. For the same molecule, the “Plant response rating, Galium” value [2, 13] was 70, the “Plant response rating, Nutsedge, Yellow” value ([3]; 31 g ai/ha) was 5 and the “Plant response rating, Nutsedge, Yellow” value ([3]; 62 g ai/ha) was 20. The “Plant response rating, Nutsedge, Yellow” value ([3]; 125 g ai/ha) was 55, the “Nutsedge, Yellow plant response rating” value [3] was 85 and the “Plant response rating, Blackgrass” value ([4]; 31 g ai/ha) was 5. For the same molecule, the “Plant response rating, Blackgrass” value ([4]; 62 g ai/ha) was 5, the “Plant response rating, Blackgrass” value ([4]; 125 g ai/ha) was 30 and the “Blackgrass plant response rating” value [4] was 35. The “Plant response rating, Soybean” value ([5]; 31 g ai/ha) was 0, the “Plant response rating, Soybean” value ([5]; 62 g ai/ha) was 5 and the “Plant response rating, Soybean” value ([5]; 125 g ai/ha) was 5. The “Soybean plant response rating” value [5] was 10, the “Plant response rating, Barnyardgrass” value ([6]; 31 g ai/ha) was 5 and the “Plant response rating, Barnyardgrass” value ([6]; 62 g ai/ha) was 5. For the same molecule, the “Plant response rating, Barnyardgrass” value ([6]; 125 g ai/ha) was 30, the “Barnyardgrass plant response rating” value [6] was 70 and the “Plant response rating, Velvetleaf” value ([7]; 31 g ai/ha) was 15. The “Plant response rating, Velvetleaf” value ([7]; 62 g ai/ha) was 40, the “Plant response rating, Velvetleaf” value ([7]; 125 g ai/ha) was 65 and the “Velvetleaf plant response rating” value [7] was 75. For the same molecule, the “Plant response rating, Pigweed” value ([8]; 31 g ai/ha) was 80, the “Plant response rating, Pigweed” value ([8]; 62 g ai/ha) was 100 and the “Plant response rating, Pigweed” value ([8]; 125 g ai/ha) was 100. The “Pigweed plant response rating” value [8] was 100, the “Plant response rating, Ragweed” value ([9]; 31 g ai/ha) was 85 and the “Plant response rating, Ragweed” value ([9]; 62 g ai/ha) was 40. The “Plant response rating, Ragweed” value ([9]; 125 g ai/ha) was 75, the “Ragweed plant response rating” value [9] was 90 and the “Plant response rating, Galium” value ([10]; 31 g ai/ha) was 50. The “Plant response rating, Galium” value ([10]; 62 g ai/ha) was 45, the “Plant response rating, Galium” value ([10]; 125 g ai/ha) was 95 and the “Galium plant response rating” value [10] was 100. For the same molecule, the “Plant response rating, Ryegrass, Italian” value ([11]; 31 g ai/ha) was 10, the “Plant response rating, Ryegrass, Italian” value ([11]; 62 g ai/ha) was 50 and the “Plant response rating, Ryegrass, Italian” value ([11]; 125 g ai/ha) was 90. For the same molecule, the “Ryegrass, Italian plant response rating” value [11] was 90.
Molecule `Cc1cc(C)c2oc(C)c(-c3c(OC(=O)C(C)(C)C)c(C)nn(C)c3=O)c2c1` [Compound 18, 1,6-dihydro-1,3-dimethyl-6-oxo-5-(2,5,7-trimethyl-3-benzofuranyl)-4-pyridazinyl 2,2-dimethylpropanoate] has a pest or weed control at 125 g/ha ([1]; Alopecurus myosuroides, post-emergence, 240 h, 125 g ai/ha, visual rating after approx. 10 d, 0 to 100 scale (0 no effect, 100 complete control), read-out: Plant response rating, Blackgrass) of 0%, a pest or weed control at 500 g/ha ([1]; Alopecurus myosuroides, post-emergence, 240 h, 500 g ai/ha, 0 to 100 scale, 0 is no effect, 100 is complete control, read-out: Blackgrass plant response rating) of 20% and a pest or weed control at 125 g/ha ([2]; Galium, post-emergence, 240 h, 125 g ai/ha, visual rating after approx. 10 d, 0 to 100 scale (0 no effect, 100 complete control), read-out: Plant response rating, Galium) of 40%. It also gave a pest or weed control at 500 g/ha ([2]; Galium, post-emergence, 240 h, 500 g ai/ha, 0 to 100 scale, 0 is no effect, 100 is complete control, read-out: Galium plant response rating) of 60%.
